Measurements taken from PubChem BioAssay AID1918940 (Molecular Pharmacology Branch, DTP, NCI, 2023).

Tested on: NCI-H211 complex spheroid viability
Assay: Anticancer human tumor NCI-H211 cell line growth inhibition [LSD1];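 note: luminescent viability read after seven days of drug exposure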;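 for viability, T/C: 100% = DMSO vehicle control viability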
Conditions: for IC50: curve of first compound; for viability, T/C: stronger effect = lower value
Outline: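 Complex spheroids of tumor cells with HUVEC and human MSCs, exposed to iadademstat combined with other agents. Each agent tested in half-log steps from near clinical Cmax (else 10 microM top), DMSO ≤0.25%.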

[1] = second compound 0.1 µM, first compound 0.0316 µM
[2] = second compound 0.1 µM, first compound 0.1 µM
[3] = second compound 0.1 µM, first compound 0.316 µM
[4] = second compound 0.1 µM, first compound 1 µM
[5] = second compound 0.1 µM, first compound 3.16 µM
[6] = second compound 0.1 µM, first compound 10 µM
[7] = second compound 0.316 µM, first compound 0.0316 µM
[8] = second compound 0.316 µM, first compound 0.1 µM
[9] = second compound 0.316 µM, first compound 0.316 µM
[10] = second compound 0.316 µM, first compound 1 µM
[11] = second compound 0.316 µM, first compound 3.16 µM
[12] = second compound 0.316 µM, first compound 10 µM
[13] = second compound 1 µM, first compound 0.0316 µM
[14] = second compound 1 µM, first compound 0.1 µM
[15] = second compound 1 µM, first compound 0.316 µM
[16] = second compound 1 µM, first compound 1 µM
[17] = second compound 1 µM, first compound 3.16 µM
[18] = second compound 1 µM, first compound 10 µM
[19] = second compound 3.16 µM, first compound 0.0316 µM
[20] = second compound 3.16 µM, first compound 0.1 µM
[21] = second compound 3.16 µM, first compound 0.316 µM
[22] = second compound 3.16 µM, first compound 1 µM
[23] = second compound 3.16 µM, first compound 3.16 µM
[24] = second compound 3.16 µM, first compound 10 µM
[25] = second compound 10 µM, first compound 0.0316 µM
[26] = second compound 10 µM, first compound 0.1 µM
[27] = second compound 10 µM, first compound 0.316 µM
[28] = second compound 10 µM, first compound 1 µM
[29] = second compound 10 µM, first compound 3.16 µM
[30] = second compound 10 µM, first compound 10 µM

| SMILES | IC50 (second compound 0.1 µM) | IC50 (second compound 0.316 µM) | IC50 (second compound 1 µM) | IC50 (second compound 3.16 µM) | IC50 (second compound 10 µM) | viability, T/C [1] | viability, T/C [2] | viability, T/C [3] | viability, T/C [4] | viability, T/C [7] | viability, T/C [8] | viability, T/C [9] | viability, T/C [10] | viability, T/C [13] | viability, T/C [14] | viability, T/C [15] | viability, T/C [16] | viability, T/C [19] | viability, T/C [20] | viability, T/C [21] | further results |
| --- | --- | --- | --- | --- | --- | --- | --- | --- | --- | --- | --- | --- | --- | --- | --- | --- | --- | --- | --- | --- | --- |
| CC(C)c1c(-c2ccccc2)nc2c(C#N)c[nH]n2c1=O + NC1CC1c1ccc(-c2cccc(O)c2)cc1 | 6.12 µM | 6.66 µM | 2.93 µM | 6.42 µM | 3.8 µM | 86.7% | 66.5% | 70.5% | 66% | 73.7% | 75.5% | 69.9% | 61.9% | 74.3% | 64.2% | 63.4% | 69.8% | 83.6% | 57.1% | 74.8% | viability, T/C [5]: 54.9%; viability, T/C [6]: 45.3%; viability, T/C [11]: 63.1%; viability, T/C [12]: 43.9%; viability, T/C [17]: 48.7%; viability, T/C [18]: 37.5%; viability, T/C [22]: 63.5%; viability, T/C [23]: 59.6%; viability, T/C [24]: 44.3%; viability, T/C [25]: 52.1%; viability, T/C [26]: 62.4%; viability, T/C [27]: 64.5%; viability, T/C [28]: 58.8%; viability, T/C [29]: 47.2%; viability, T/C [30]: 41.7% |
| CC1COCCN1c1cc(-c2ccnn2C)c2ccnc(-c3ccn[nH]3)c2n1 (stereo not given) + NC1CC1c1ccc(-c2cccc(O)c2)cc1 | 0.00378 µM | 0.00351 µM | < 0.00316 µM | < 0.00316 µM | < 0.00316 µM | 6.31% | 4.68% | 3.56% | 3.19% | 6.09% | 4.56% | 4.43% | 4.27% | 6.6% | 4.61% | 7.13% | 4.1% | 6.53% | 4.92% | 4.52% | viability, T/C (second compound 0.1 µM, first compound 0.00316 µM): 56.3%; viability, T/C (second compound 0.1 µM, first compound 0.01 µM): 16.8%; viability, T/C (second compound 0.316 µM, first compound 0.00316 µM): 53.6%; viability, T/C (second compound 0.316 µM, first compound 0.01 µM): 14%; viability, T/C (second compound 1 µM, first compound 0.00316 µM): 47.7%; viability, T/C (second compound 1 µM, first compound 0.01 µM): 16.8%; viability, T/C (second compound 3.16 µM, first compound 0.00316 µM): 43.6%; viability, T/C (second compound 3.16 µM, first compound 0.01 µM): 14.1%; viability, T/C [22]: 4.59%; viability, T/C (second compound 10 µM, first compound 0.00316 µM): 34.5%; viability, T/C (second compound 10 µM, first compound 0.01 µM): 14.5%; viability, T/C [25]: 7.33%; viability, T/C [26]: 4.8%; viability, T/C [27]: 4.76%; viability, T/C [28]: 6.03% |
| COc1ccc([C@@H](O)c2cc(-c3ncnc4cc(N5CCOCC5)ccc34)c(F)cc2Cl)nn1 + NC1CC1c1ccc(-c2cccc(O)c2)cc1 | 4.47 µM | 4.05 µM | 3.57 µM | 2.49 µM | < 0.0316 µM | 62% | 63.6% | 75% | 89.8% | 59.7% | 52.7% | 62.2% | 73.5% | 67.3% | 67% | 72.2% | 76.8% | 54.5% | 53.1% | 59% | viability, T/C [5]: 65.8%; viability, T/C [6]: 13.6%; viability, T/C [11]: 59.9%; viability, T/C [12]: 12.2%; viability, T/C [17]: 54.8%; viability, T/C [18]: 9.71%; viability, T/C [22]: 60.4%; viability, T/C [23]: 48.2%; viability, T/C [24]: 8.23%; viability, T/C [25]: 51.2%; viability, T/C [26]: 38.8%; viability, T/C [27]: 51.6%; viability, T/C [28]: 48%; viability, T/C [29]: 36.7%; viability, T/C [30]: 3.23% |
